Reference: patent US12187721B2, “Protein tyrosine phosphatase inhibitors” (Array BioPharma Inc., priority 2018, dated 2025)

molecular target: T1, full-length SHP2 (His6-tagged SHP2(2-527)) (Homo sapiens, UniProt Q06124); test: SHP2 Enzymatic Assay (fluorescence intensity kinetic assay, DiFMUP hydrolysis); format: biochemical; conditions: not given
T1 construct: His6-tagged SHP2(2-527); His6; made in house; host or cells: E. coli
Description: A fluorescence intensity kinetic assay was configured for full-length SHP2 that monitors the amount of 6,8-difluoro-7-hydroxy-4-methylcoumarin (“DiFMU”) formed upon hydrolysis of 6,8-difluoro-4-methylumbelliferyl phosphate (“DiFMUP”) by SHP2. Assay mixtures consisted of 25 mM K^+HEPES, pH 7.4, 0.01% Triton X-100, 1 mM DTT, 50 mM KCl, 100 μg/mL bovine γ-globulin, 50 μM DiFMUP, 1 μM SHP2 activating peptide (LN(pY)IDLDLV(dPEG8)LST(pY)ASINFQK-amide), 1 nM full-length SHP2 (His6-tagged SHP2(2-527), recombinantly expressed in E. coli and purified in-house) and 2% dimethylsulfoxide (“DMSO”) (from compound). […] The assay was run in 384-well, polystyrene, low-volume, non-treated, black microtiter plates (Costar 4511) in a final volume of 20 μL. Low control wells lacked enzyme. The assays were initiated by the addition of a mixture of SHP2 and the activating peptide, and following a 15 second mix on an orbital shaker, were read in kinetic mode for 15 minutes (30 seconds/cycle) at ambient temperature on a PerkinElmer EnVision microplate reader (λEx=355 nm, λEm=460 nm). Initial velocities (slopes of the tangents at t=0) were estimated from exponential fits to the slightly nonlinear progress curves and then were converted to percent of control (“POC”) using the following equation:
[formula] • Where: Xmax Average Uninhibited Controls • Xmin Average Background A 4-parameter logistic model was the fit to the POC data for each compound. From that fit, the IC50 was estimated and is defined as the concentration of compound at which the curve crosses 50 POC.
The reported IC50 in Table 1 may be from a single assay or the mean of multiple assays.

T1 sequence (Q06124 2-527): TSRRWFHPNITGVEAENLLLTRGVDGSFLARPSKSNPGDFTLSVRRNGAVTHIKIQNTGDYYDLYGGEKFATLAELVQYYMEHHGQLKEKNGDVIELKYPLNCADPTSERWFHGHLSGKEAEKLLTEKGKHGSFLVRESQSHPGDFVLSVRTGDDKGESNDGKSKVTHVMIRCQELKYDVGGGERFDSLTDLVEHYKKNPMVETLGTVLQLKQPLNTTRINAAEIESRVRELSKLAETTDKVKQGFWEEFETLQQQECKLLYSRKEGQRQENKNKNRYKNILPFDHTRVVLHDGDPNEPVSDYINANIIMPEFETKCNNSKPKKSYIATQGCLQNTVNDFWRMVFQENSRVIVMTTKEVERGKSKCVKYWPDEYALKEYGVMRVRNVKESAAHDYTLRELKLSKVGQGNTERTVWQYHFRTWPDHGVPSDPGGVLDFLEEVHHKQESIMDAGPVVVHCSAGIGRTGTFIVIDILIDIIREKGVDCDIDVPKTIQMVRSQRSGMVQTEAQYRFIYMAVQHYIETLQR

| SMILES | IC50 |
| --- | --- |
| NCC1CCN(c2cnc3nc(-c4cccc(Cl)c4Cl)ccc3n2)C1 (stereo not shown) [Example 28, (1-(6-(2,3-dichlorophenyl)pyrido[2,3-b]pyrazin-2-yl)pyrrolidin-3-yl)methanamine] | 830 nM |
| CN(CCN)c1cnc2nc(-c3cccc(Cl)c3Cl)ccc2n1 [Example 29, N1-(6-(2,3-dichlorophenyl)pyrido[2,3-b]pyrazin-2-yl)-N1-methylethane-1,2-diamine] | 320 nM |
| COc1ccc(-c2ccc3nc(N4CCC(C)(N)CC4)cnc3n2)c(Cl)c1Cl [Example 30, 1-(6-(2,3-dichloro-4-methoxyphenyl)pyrido[2,3-b]pyrazin-2-yl)-4-methylpiperidin-4-amine] | 420 nM |
| C[C@@]1(N)CCN(c2cnc3nc(-c4cccc(Cl)c4Cl)ccc3n2)C1 [Example 32, (R)-1-(6-(2,3-dichlorophenyl)pyrido[2,3-b]pyrazin-2-yl)-3-methylpyrrolidin-3-amine] | 420 nM |
| Cn1ncc2cccc(Sc3ccc4nc(N5CCC(C)(N)CC5)cnc4n3)c21 [Example 34, 4-methyl-1-(6-((1-methyl-1H-indazol-7-yl)thio)pyrido[2,3-b]pyrazin-2-yl)piperidin-4-amine] | 2600 nM |
| COc1cccc(-c2ccc3nc(N4CCC(C)(N)CC4)cnc3n2)c1Cl [Example 37, 1-(6-(2-chloro-3-methoxyphenyl)pyrido[2,3-b]pyrazin-2-yl)-4-methylpiperidin-4-amine] | 1100 nM |
| C[C@@H]1OCC2(CCN(c3cnc4nc(-c5cccc(Cl)c5Cl)ccc4n3)CC2)[C@@H]1N [Example 39, (3S,4S)-8-(6-(2,3-dichlorophenyl)pyrido[2,3-b]pyrazin-2-yl)-3-methyl-2-oxa-8-azaspiro[4.5]decan-4-amine] | 320 nM |
| CC1(N)CCN(c2cnc3nc(Sc4nccn5nccc45)ccc3n2)CC1 [Example 40, 4-methyl-1-(6-(pyrazolo[1,5-a]pyrazin-4-ylthio)pyrido[2,3-b]pyrazin-2-yl)piperidin-4-amine] | 440 nM |
| NCC1(O)CCN(c2cnc3nc(Sc4ccnc(N)c4Cl)ccc3n2)CC1 [Example 42, 1-(6-((2-amino-3-chloropyridin-4-yl)thio)pyrido[2,3-b]pyrazin-2-yl)-4-(aminomethyl)piperidin-4-ol] | 95 nM |
| Nc1nccc(Sc2ccc3nc(N4CCC(N)(CO)CC4)cnc3n2)c1Cl [Example 43, (4-amino-1-(6-((2-amino-3-chloropyridin-4-yl)thio)pyrido[2,3-b]pyrazin-2-yl)piperidin-4-yl)methanol] | 100 nM |
| COc1nccc(Sc2ccc3nc(N4CCC(N)(CO)CC4)cnc3n2)c1Cl [Example 44, (4-amino-1-(6-((3-chloro-2-methoxypyridin-4-yl)thio)pyrido[2,3-b]pyrazin-2-yl)piperidin-4-yl)methanol] | 120 nM |
| NC1(CO)CCN(c2cnc3nc(Sc4ccnc(N5CCCC5)c4Cl)ccc3n2)CC1 [Example 45, (4-amino-1-(6-((3-chloro-2-(pyrrolidin-1-yl)pyridin-4-yl)thio)pyrido[2,3-b]pyrazin-2-yl)piperidin-4-yl)methanol] | 92 nM |
| CC1(N)CCN(c2cnc3nc(-c4ccnc(N5CC[C@@H](O)C5)c4Cl)ccc3n2)CC1 [Example 46, (R)-1-(4-(2-(4-amino-4-methylpiperidin-1-yl)pyrido[2,3-b]pyrazin-6-yl)-3-chloropyridin-2-yl)pyrrolidin-3-ol] | 2900 nM |
| CC1(N)CCN(c2cnc3nc(-c4ccnc(NCCO)c4Cl)ccc3n2)CC1 [Example 47, 2-((4-(2-(4-amino-4-methylpiperidin-1-yl)pyrido[2,3-b]pyrazin-6-yl)-3-chloropyridin-2-yl)amino)ethan-1-ol] | 6000 nM |
| CC1(N)CCN(c2cnc3nc(Sc4cccc5ccncc45)ccc3n2)CC1 [Example 48, 1-(6-(isoquinolin-8-ylthio)pyrido[2,3-b]pyrazin-2-yl)-4-methylpiperidin-4-amine] | 460 nM |
| CC1(N)CCN(c2cnc3nc(Sc4ccnc(N5CCCC5)c4Cl)ccc3n2)CC1 [Example 49, 1-(6-((3-chloro-2-(pyrrolidin-1-yl)pyridin-4-yl)thio)pyrido[2,3-b]pyrazin-2-yl)-4-methylpiperidin-4-amine] | 63 nM |
| CC1(N)CCN(c2cnc3nc(-c4cccc5ccncc45)ccc3n2)CC1 [Example 50, 1-(6-(isoquinolin-8-yl)pyrido[2,3-b]pyrazin-2-yl)-4-methylpiperidin-4-amine] | 9000 nM |
| Nc1nccc(Sc2ccc3nc(N4CCC[C@H](N)CC4)cnc3n2)c1Cl [Example 51, (S)-1-(6-((2-amino-3-chloropyridin-4-yl)thio)pyrido[2,3-b]pyrazin-2-yl)azepan-4-amine] | 65 nM |
| COCC1(N)CCN(c2cnc3nc(Sc4ccnc(N)c4Cl)ccc3n2)CC1 [Example 53, 4-((2-(4-amino-4-(methoxymethyl)piperidin-1-yl)pyrido[2,3-b]pyrazin-6-yl)thio)-3-chloropyridin-2-amine] | 123 nM |
| Nc1nccc(Sc2ccc3nc(N4CCC5(CC4)CNC5)cnc3n2)c1Cl [Example 54, 4-((2-(2,7-diazaspiro[3.5]nonan-7-yl)pyrido[2,3-b]pyrazin-6-yl)thio)-3-chloropyridin-2-amine] | 60 nM |
| Nc1nccc(Sc2ccc3nc(N4CCC5(CCN5)CC4)cnc3n2)c1Cl [Example 55, 4-((2-(1,7-diazaspiro[3.5]nonan-7-yl)pyrido[2,3-b]pyrazin-6-yl)thio)-3-chloropyridin-2-amine] | 121 nM |
| Nc1nccc(Sc2ccc3nc(N4[C@@H]5CCC[C@H]4CC(N)C5)cnc3n2)c1Cl (stereo partly drawn) [Example 56, (1R,5S)-9-(6-((2-amino-3-chloropyridin-4-yl)thio)pyrido[2,3-b]pyrazin-2-yl)-9-azabicyclo[3.3.1]nonan-3-amine] | 42 nM |
| Nc1nccc(Sc2ccc3nc(N4C[C@H]5C[C@H](N)[C@@H](C4)O5)cnc3n2)c1Cl [Example 58, (1R,5R,6S)-3-(6-((2-amino-3-chloropyridin-4-yl)thio)pyrido[2,3-b]pyrazin-2-yl)-8-oxa-3-azabicyclo[3.2.1]octan-6-amine] | 153 nM |
| N[C@H]1C[C@@H]2CN(c3cnc4nc(Sc5cccc(Cl)c5Cl)ccc4n3)C[C@H]1O2 [Example 59, (1R,5R,6S)-3-(6-((2,3-dichlorophenyl)thio)pyrido[2,3-b]pyrazin-2-yl)-8-oxa-3-azabicyclo[3.2.1]octan-6-amine] | 405 nM |
| CC(C)(N)C1CCN(c2cnc3nc(Sc4ccnc(N)c4Cl)ccc3n2)CC1 [Example 60, 4-((2-(4-(2-aminopropan-2-yl)piperidin-1-yl)pyrido[2,3-b]pyrazin-6-yl)thio)-3-chloropyridin-2-amine] | 245 nM |
| CC(C)(N)C1CCN(c2cnc3nc(Sc4cccc(Cl)c4Cl)ccc3n2)CC1 [Example 61, 2-(1-(6-((2,3-dichlorophenyl)thio)pyrido[2,3-b]pyrazin-2-yl)piperidin-4-yl)propan-2-amine] | 1570 nM |
| NCC1CN(c2cnc3nc(Sc4ccnc(N)c4Cl)ccc3n2)CCO1 (stereo not shown) [Example 62, 4-((2-(2-(aminomethyl)morpholino)pyrido[2,3-b]pyrazin-6-yl)thio)-3-chloropyridin-2-amine] | 165 nM |
| NCC1CN(c2cnc3nc(Sc4cccc(Cl)c4Cl)ccc3n2)CCO1 (stereo not shown) [Example 63, (4-(6-((2,3-dichlorophenyl)thio)pyrido[2,3-b]pyrazin-2-yl)morpholin-2-yl)methanamine] | 280 nM |
| NCC1CN(c2cnc3nc(-c4cccc(Cl)c4Cl)ccc3n2)CCO1 (stereo not shown) [Example 64, (4-(6-(2,3-dichlorophenyl)pyrido[2,3-b]pyrazin-2-yl)morpholin-2-yl)methanamine] | 730 nM |

same assay, conditions: full-length SHP2 with 1 μM activating peptide, 50 μM DiFMUP; single assay or mean of multiple assays; read-out: Biological Example 1 IC50

| SMILES | IC50 |
| --- | --- |
| CNC1(C)CCN(c2cnc3nc(Sc4ccnc(N)c4Cl)ccc3n2)CC1 [Example 31, 3-chloro-4-((2-(4-methyl-4-(methylamino)piperidin-1-yl)pyrido[2,3-b]pyrazin-6-yl)thio)pyridin-2-amine] | 100 nM |
| CC1(N)CCN(c2cnc3nc(Sc4cccc(C#N)c4Cl)ccc3n2)CC1 [Example 35, 3-((2-(4-amino-4-methylpiperidin-1-yl)pyrido[2,3-b]pyrazin-6-yl)thio)-2-chlorobenzonitrile] | 270 nM |
| CC1(N)CCN(c2cnc3nc(Sc4cccn5nccc45)ccc3n2)CC1 [Example 36, 4-methyl-1-(6-(pyrazolo[1,5-a]pyridin-4-ylthio)pyrido[2,3-b]pyrazin-2-yl)piperidin-4-amine] | 400 nM |
| CC1(N)CCN(c2cnc3nc(-c4cccc5ccccc45)ccc3n2)CC1 [Example 38, 4-methyl-1-(6-(naphthalen-1-yl)pyrido[2,3-b]pyrazin-2-yl)piperidin-4-amine] | 290 nM |
| Nc1nccc(Sc2ccc3nc(N4[C@H]5CC[C@H]4CC(N)C5)cnc3n2)c1Cl (stereo partly drawn) [Example 52, (1R,3s,5S)-8-(6-((2-amino-3-chloropyridin-4-yl)thio)pyrido[2,3-b]pyrazin-2-yl)-8-azabicyclo[3.2.1]octan-3-amine] | 70 nM |
